Measurements: US8497296B2, “N,N′-hydrazino-bis-isatin derivatives with selective activity against multidrug-resistant cancer cells” (King Saud University, priority 2011, dated 2013)

What was measured:
[1] = test system: KB-V1 cells; assay: MTT cytotoxicity assay, P-glycoprotein-expressing MDR cell line KB-V1; format: cell-based; conditions: for IC50: Homo sapiens, P-glycoprotein-expressing MDR KB-V1 cells, 72 h incubation, MTT, at least three experiments, read-out: IC50 KBV1; for RR (MDR1 selectivity): ratio of IC50 against KB-3-1 cells divided by IC50 against KB-V1 cells, >1 = MDR1-selective
Procedure: (§1) The cytotoxicity of the prepared compounds was evaluated at Laboratory of Cell Biology, National Cancer Institute, National Institutes of Health, Bethesda, Md. 20892, Group in Biomolecular, USA, using the following protocol:
KB-3-1 cells (a HeLa deriviative) and its MDR derivative (KB-V1) were grown as previously described. Cell survival was measured by the MTT (3-(4,5-dimethylthiazol-2-yl)-2,5-diphenyltetrazolium bromide) assay as previously described. Briefly, cells were seeded in 100 μL of growth medium at a density of 5000 cells/well in 96-well plates and allowed to establish for 24 h, at which time serially diluted drugs were added in an additional 100 μL of growth medium. Cells were then incubated for 72 h at 37° C. in humidified 5% CO2, at which time the growth medium was drawn and replaced with MTT in IMDM growth medium and incubated for 4 h. The MTT solution was then drawn from the wells, and 100 μL of acidified ethanol solution was added to each well and after 15 min absorption at 560 nm was measured. […]

[2] = test system: KB-3-1 cells; assay: MTT cytotoxicity assay, parental KB-3-1 cell line; format: cell-based; conditions: Homo sapiens, parental KB-3-1 cells (HeLa derivative), 72 h incubation, at least three experiments, read-out: IC50 KB3-1
Procedure: as §1
KB-3-1 cells (a HeLa deriviative) and its MDR derivative (KB-V1) were grown as previously described. Cell survival was measured by the MTT (3-(4,5-dimethylthiazol-2-yl)-2,5-diphenyltetrazolium bromide) assay as previously described. Briefly, cells were seeded in 100 μL of growth medium at a density of 5000 cells/well in 96-well plates and allowed to establish for 24 h, at which time serially diluted drugs were added in an additional 100 μL of growth medium. Cells were then incubated for 72 h at 37° C. in humidified 5% CO2, at which time the growth medium was drawn and replaced with MTT in IMDM growth medium and incubated for 4 h. The MTT solution was then drawn from the wells, and 100 μL of acidified ethanol solution was added to each well and after 15 min absorption at 560 nm was measured. […] The effect of treatment on cell viability was determined using the luminescent Cell Titer Glo Assay (Promega).

Row | SMILES | IC50 [1] [µM] | RR (MDR1 selectivity) [1] | IC50 [2] [µM]
1 | Cc1ccc2c(c1)/C(=N/N=C1\C(=O)N(c3ccccc3)c3ccccc31)C(=O)N2 [Compound 15, (Z)-5-Methyl-3-((Z)-(2-oxo-1-phenylindolin-3-ylidene)hydrazono)indolin-2-one] | 8.06 ± 1.68 | 1.04 | 8.37 ± 0.62
2 | O=C1Nc2ccc(F)cc2/C1=N/N=C1\C(=O)Nc2ccc(Cl)cc21 [Compound 19, (Z)-5-Chloro-3-((Z)-(5-fluoro-2-oxoindolin-3-ylidene)hydrazono)indolin-2-one] | 11.3 ± 3.26 | 1.54 | 17.4 ± 4.41
3 | O=C1Nc2ccc(Br)cc2/C1=N/N=C1\C(=O)N(c2ccccc2)c2ccccc21 [Compound 14, (Z)-5-Bromo-3-((Z)-(2-oxo-1-phenylindolin-3-ylidene)hydrazono)indolin-2-one] | 8.71 ± 0.27 | 0.91 | 7.93 ± 2.11
4 | O=C1Nc2ccccc2/C1=N/N=C1\C(=O)N(c2ccccc2)c2ccccc21 [Compound 4, (Z)-3-((Z)-(2-Oxoindolin-3-ylidene)hydrazono)-1-phenylindolin-2-one] | 10.8 ± 1.1 | 0.81 | 8.7 ± 2.21
5 | O=C1Nc2ccc(OC(F)(F)F)cc2/C1=N/N=C1\C(=O)N(c2ccccc2)c2ccccc21 [Compound 17, ((Z)-3-(Z)-(2-oxo-1-phenylindolin-3-ylidene)hydrazono)-5-(trifluoromethoxy)indolin-2-one] | 4.8 ± 0.12 | 1.60 | 7.67 ± 0.88
6 | O=C1Nc2ccc(F)cc2/C1=N/N=C1\C(=O)Nc2ccc([N+](=O)[O-])cc21 [Compound 22, (Z)-5-Fluoro-3-((Z)-(5-nitro-2-oxoindolin-3-ylidene)hydrazono)indolin-2-one] | 38.6 ± 13.5 | 1.45 | 56 ± 1.5
7 | O=C1Nc2ccc(F)cc2/C1=N/N=C1\C(=O)N(c2ccccc2)c2ccccc21 [Compound 12, (Z)-5-Fluoro-3-((Z)-(2-oxo-1-phenylindolin-3-ylidene)hydrazono)indolin-2-one] | 11.2 ± 0.61 | 0.91 | 10.2 ± 1.52
8 | O=C1Nc2ccccc2/C1=N/N=C1\C(=O)Nc2ccc(Cl)cc21 [Compound 6, (Z)-5-Chloro-3-((Z)-(2-oxoindolin-3-ylidene)hydrazono)indolin-2-one] | 7.72 ± 0.5 | 1.25 | 9.67 ± 1.74
9 | O=C1Nc2ccccc2/C1=N/N=C1\C(=O)Nc2ccc(OC(F)(F)F)cc21 [Compound 10, (Z)-3-((Z)-(2-Oxoindolin-3-ylidene)hydrazono)-5-(trifluoromethoxy)indolin-2-one] | 5.67 ± 1.18 | 1.72 | 9.75 ± 0.11
10 | O=C1Nc2ccc(Cl)cc2/C1=N/N=C1\C(=O)N(c2ccccc2)c2ccccc21 [Compound 13, (Z)-5-Chloro-3-((Z)-(2-oxo-1-phenylindolin-3-ylidene)hydrazono)indolin-2-one] | 6.07 ± 1.19 | 1.12 | 6.79 ± 0.63
11 | O=C1Nc2ccc(F)cc2/C1=N/N=C1\C(=O)Nc2ccc(F)cc21 [Compound 18, (3Z,3′Z)-3,3′-(Hydrazine-1,2-diylidene)bis(5-fluoroindolin-2-one)] | 16.5 ± 6.28 | 1.23 | 20.4 ± 4.62
12 | O=C1Nc2ccccc2/C1=N/N=C1\C(=O)Nc2ccc(Br)cc21 [Compound 7, (Z)-5-Bromo-3-((Z)-(2-oxoindolin-3-ylidene)hydrazono)indolin-2-one] | 7.58 ± 1.43 | 1.28 | 9.71 ± 0.31
13 | O=C1Nc2ccccc2/C1=N/N=C1\C(=O)Nc2ccc(F)cc21 [Compound 5, (Z)-5-Fluoro-3-((Z)-(2-oxoindolin-3-ylidene)hydrazono)indolin-2-one] | 25.3 ± 10.1 | 1.11 | 28.1 ± 2.48
14 | O=C1Nc2ccccc2/C1=N/N=C1\C(=O)Nc2ccc([N+](=O)[O-])cc21 [Compound 9, (Z)-5-Nitro-3-((Z)-(2-oxoindolin-3-ylidene)hydrazono)indolin-2-one] | 30.4 ± 6.75 | 0.96 | 29.2 ± 2.81
15 | O=C1Nc2ccccc2/C1=N/N=C1\C(=O)Nc2ccccc21 [Compound 3, (3Z,3′Z)-3,3′-(Hydrazine-1,2-diylidene)diindolin-2-one] | 17.3 ± 1.59 | 0.99 | 17.1 ± 0.83
16 | O=C1/C(=N\N=C2/C(=O)N(c3ccccc3)c3ccccc32)c2ccccc2N1c1ccccc1 [Compound 11, (3Z,3′Z)-3,3′-(Hydrazine-1,2-diylidene)bis(1-phenylindolin-2-one)] | 22 ± 2.37 | 1.16 | 25.6 ± 2.39
17 | N/N=C1\C(=O)Nc2ccccc21 [Compound 2a, (Z)-3-Hydrazonoindolin-2-one] | 125 ± 39.4 |  | > 500
18 | O=C1Nc2ccc(F)cc2/C1=N/N=C1\C(=O)Nc2ccc(OC(F)(F)F)cc21 [Compound 23, (Z)-5-Fluoro-3-((Z)-(2-oxo-5-(trifluoromethoxy)indolin-3-ylidene)hydrazono)indolin-2-one] | 11.6 ± 2.55 | 1.31 | 15.2 ± 1.34
19 | O=C1Nc2ccc([N+](=O)[O-])cc2/C1=N/N=C1\C(=O)N(c2ccccc2)c2ccccc21 [Compound 16, (Z)-5-Nitro-3-((Z)-(2-oxo-1-phenylindolin-3-ylidene)hydrazono)indolin-2-one] | 48.6 ± 2.32 | 0.76 | 37.1 ± 4.05
20 | O=C1Nc2ccc(F)cc2/C1=N/N=C1\C(=O)Nc2ccc(Br)cc21 [Compound 20, (Z)-5-Bromo-3-((Z)-(5-fluoro-2-oxoindolin-3-ylidene)hydrazono)indolin-2-one] | 18.6 ± 2.01 | 0.83 | 15.4 ± 3.97
21 | Cc1ccc2c(c1)/C(=N/N=C1\C(=O)Nc3ccccc31)C(=O)N2 [Compound 8, (Z)-5-Methyl-3-((Z)-(2-oxoindolin-3-ylidene)hydrazono)indolin-2-one] | 14.9 ± 1.26 | 0.81 | 12.1 ± 3.14
22 | Cc1ccc2c(c1)/C(=N/N=C1\C(=O)Nc3ccc(F)cc31)C(=O)N2 [Compound 21, (Z)-5-Fluoro-3-((Z)-(5-methyl-2-oxoindolin-3-ylidene)hydrazono)indolin-2-one] | 17.9 ± 0.82 | 1.06 | 18.9 ± 0.46
